Measured values as given in ChEMBL document CHEMBL5625179, “2-Substituted quinazolines: Partial agonistic and antagonistic ligands of the constitutive androstane receptor (CAR)” (Eur J Med Chem, 2023).

Tests used:
Assay type in all cases: cell-based; call rule not given here
[1] = target: T1, Nuclear receptor subfamily 1 group I member 3 (Homo sapiens, UniProt Q14994); experiment: Activation of human CAR3 expressed in human HepG2 cells at 30 uM incubated for 24 hrs by dual luciferase gene reporter assay relative to CITCO; details: hepg2, 24 h
T1 sequence (Q14994 whole entry): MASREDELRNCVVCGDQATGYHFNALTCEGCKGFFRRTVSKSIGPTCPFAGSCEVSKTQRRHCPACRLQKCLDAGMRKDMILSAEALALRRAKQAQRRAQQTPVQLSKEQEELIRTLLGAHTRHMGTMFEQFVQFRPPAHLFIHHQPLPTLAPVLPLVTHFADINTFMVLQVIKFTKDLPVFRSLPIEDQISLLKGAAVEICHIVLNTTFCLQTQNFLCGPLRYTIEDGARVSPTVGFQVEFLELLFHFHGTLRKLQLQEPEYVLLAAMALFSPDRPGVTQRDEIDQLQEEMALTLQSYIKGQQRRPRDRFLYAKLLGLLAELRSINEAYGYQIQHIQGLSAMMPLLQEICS

[2] = target: T1, Nuclear receptor subfamily 1 group I member 3; experiment: Activation of human CAR LBD expressed in human HepG2 cells at 30 uM incubated for 24 hrs by dual luciferase reporter assay relative to CITCO; details: hepg2, 24 h
[3] = target: T1, Nuclear receptor subfamily 1 group I member 3; experiment: Partial agonist activity at human CAR LBD (151 to 349 residues) expressed in HepG2 cells coexpressed with pGL5-luc luciferase measured after 1 to 4 hrs by LanthaScreen TR-FRET assay; details: for Activity: human, hepg2, time 1-4 hrs
[4] = target: T1, Nuclear receptor subfamily 1 group I member 3; experiment: Partial agonist activity human CAR3 expressed in human HepG2 cells at 30 uM incubated for 24 hrs by dual luciferase gene reporter assay relative to CITCO; details: hepg2, 24 h
[5] = target: T1, Nuclear receptor subfamily 1 group I member 3; experiment: Antagonist activity at human CAR LBD expressed in human HepG2 cells at 30 uM incubated for 24 hrs in presence of CITCO by dual luciferase reporter assay; details: hepg2, 24 h
CAR (NR1I3) LBD [6] = target: T2, CAR (NR1I3) LBD (Homo sapiens, UniProt Q14994); experiment: Partial agonist activity at human CAR LBD expressed in human HepG2 cells at 30 uM incubated for 24 hrs by dual luciferase reporter assay relative to CITCO; details: HepG2 cells expressing human CAR LBD, read-out: Activity
T2 sequence (Q14994 whole entry): T1 sequence (Q14994 whole entry)

[7] = target: T1, Nuclear receptor subfamily 1 group I member 3; experiment: Antagonist activity at human CAR LBD (151 to 349 residues) expressed in HepG2 cells co-expressed with pGL5-luc luciferase assessed as reduction in CAR activation measured after 1 to 4 hrs by LanthaScreen TR-FRET assay; details: time 1-4 hrs
[8] = target: T1, Nuclear receptor subfamily 1 group I member 3; experiment: Antagonist activity at human CAR LBD expressed in human HepG2 cells incubated for 24 hrs in presence of CITCO by dual luciferase reporter assay
[9] = target: T1, Nuclear receptor subfamily 1 group I member 3; experiment: Antagonist activity at human CAR LBD (151 to 349 residues) expressed in HepG2 cells co-expressed with pGL5-luc luciferase assessed as reduction in CAR activation measured after 1 to 4 hrs in presence of CITCO by LanthaScreen TR-FRET assay
CAR (NR1I3) LBD [10] = target: T2, CAR (NR1I3) LBD; experiment: Antagonist activity at human CAR LBD expressed in human HepG2 cells at 30 uM incubated for 24 hrs by dual luciferase reporter assay relative to CITCO; set-up: scale not given: the % may be the effect or the level left; details: HepG2 cells expressing human CAR LBD, read-out: Activity
CAR3 (NR1I3) = target: T3, CAR3 (NR1I3) (Homo sapiens, UniProt Q14994); experiment: Antagonist activity at human CAR3 expressed in human HepG2 cells at 30 uM incubated for 24 hrs by dual luciferase gene reporter assay relative to CITCO; set-up: scale not given: the % may be the effect or the level left; details: HepG2 cells expressing human CAR3, read-out: Activity
T3 sequence (Q14994 whole entry): T1 sequence (Q14994 whole entry)

| SMILES | Activity [1] | Activity [2] | further results |
| --- | --- | --- | --- |
| COc1ccc(-c2nc(O)c3ccccc3n2)cc1OC | 28% | 3% |  |
| O=c1[nH]c(-c2ccc(Br)cc2)nc2ccccc12 | 12% | 3% |  |
| COc1ccc(-c2nc3ccccc3c(=S)[nH]2)cc1OC | 13% | -4% |  |
| S=c1[nH]c(-c2cccc(Cl)c2)nc2ccccc12 | 15% | 6% |  |
| COc1nc(-c2cccc(F)c2)nc2ccccc12 | 5% | -5% |  |
| Cn1c(-c2ccc(F)cc2)nc2ccccc2c1=O | 13% | -5% |  |
| O=c1[nH]c(-c2ccc(Cl)c(Cl)c2)nc2ccccc12 | 9% | -6% |  |
| CSc1nc(-c2cccc(C)c2)nc2ccccc12 |  |  | EC50 [3]: 10.6 µM; Activity [4]: 44%; Activity [5]: Active; activity at 24 h, 30 µM (CAR (NR1I3) LBD [6]): 36.3% |
| COc1ccc(-c2nc3ccccc3c(=O)n2C)cc1OC | 15% | -6% |  |
| Sc1nc(-c2ccc(Br)cc2)nc2ccccc12 |  |  | Activity [3]: Not Active; Activity [7]: Not Active; IC50 [8]: 30 µM; IC50 [9]: 95.7 µM; activity at 24 h, 30 µM (CAR (NR1I3) LBD [10]): 1%; Activity [5]: Active; activity at 24 h, 30 µM (CAR3 (NR1I3)): 44% |
| CC(C)(C)c1ccc(-c2nc3ccccc3c(=S)[nH]2)cc1 | 9% | 1% |  |
| COc1nc(-c2ccc(OC(F)(F)F)cc2)nc2ccccc12 | 5% | -3% |  |
| Cn1c(-c2ccc(OC(F)(F)F)cc2)nc2ccccc2c1=O | 22% | -8% | Activity [3]: Not Active; Activity [7]: Not Active; Activity [5]: Active |
| Cc1cccc(-c2nc3ccccc3c(=O)n2C)c1 | 13% | -3% |  |
| O=c1[nH]c(-c2ccc(C(F)(F)F)cc2)nc2ccccc12 | 12% | -8% |  |
| Oc1nc(-c2ccc(F)cc2)nc2ccccc12 | 10% | -6% |  |
| O=[N+]([O-])c1cccc(-c2nc3ccccc3c(=S)[nH]2)c1 | 11% | 1% |  |
| O=c1[nH]c(-c2ccc3c(c2)OCO3)nc2ccccc12 | 3% | -2% |  |
| COc1nc(-c2cccc([N+](=O)[O-])c2)nc2ccccc12 | 15% | -3% |  |
| Cc1cccc(-c2nc(O)c3ccccc3n2)c1 | 34% | 5% |  |
| CC(C)(C)c1ccc(-c2nc3ccccc3c(=O)[nH]2)cc1 | 7% | -5% |  |
| COc1ccc(-c2nc3ccccc3c(=O)[nH]2)cc1 | 33% | 3% |  |
